Test results reported in PubChem BioAssay (NCI).
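Briefly, cells in 96-well plates were exposed to five compound concentrations for 48 h, and endpoints were estimated by linear interpolation. At the GI50, growth is halved. TGI marks complete inhibition of growth.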

How the values were obtained:
Assay in all cases: NCI tumour cell line growth inhibition, 48 h
ACHN renal = system: ACHN renal
CCRF-CEM leukemia = system: CCRF-CEM leukemia
HOP-92 NSCLC = system: HOP-92 NSCLC
MDA-MB-231 breast = system: MDA-MB-231 breast
OVCAR-8 ovarian = system: OVCAR-8 ovarian
SF-268 CNS = system: SF-268 CNS
SF-295 CNS = system: SF-295 CNS
SF-539 CNS = system: SF-539 CNS
TK-10 renal = system: TK-10 renal
UACC-62 melanoma = system: UACC-62 melanoma

| SMILES | GI50 (ACHN renal) | TGI (ACHN renal) | GI50 (CCRF-CEM leukemia) | TGI (CCRF-CEM leukemia) | GI50 (HOP-92 NSCLC) | TGI (HOP-92 NSCLC) | GI50 (MDA-MB-231 breast) | TGI (MDA-MB-231 breast) | GI50 (OVCAR-8 ovarian) | TGI (OVCAR-8 ovarian) | GI50 (SF-268 CNS) | TGI (SF-268 CNS) | GI50 (SF-295 CNS) | TGI (SF-295 CNS) | GI50 (SF-539 CNS) | TGI (SF-539 CNS) | GI50 (TK-10 renal) | TGI (TK-10 renal) | GI50 (UACC-62 melanoma) | TGI (UACC-62 melanoma) |
| --- | --- | --- | --- | --- | --- | --- | --- | --- | --- | --- | --- | --- | --- | --- | --- | --- | --- | --- | --- | --- |
| CNCCCn1cc(C2=C(c3cn(C)c4ccccc34)C(=O)NC2=O)c2ccccc21 | 3.99 µM | 13.9 µM | 4.91 µM | 20.4 µM | 2.63 µM | 10.1 µM | 5.32 µM | 15.1 µM | 4.99 µM | 12.6 µM | 5.24 µM | 12 µM | 4.73 µM | 10.3 µM | 3.59 µM | 7.06 µM | 4.16 µM | 10.7 µM | 3.96 µM | 7.67 µM |
| CCC[CH2][Sn]([CH2]CCC)([CH2]CCC)[O]C(=O)CC | 0.17 µM | 0.333 µM |  |  | 0.137 µM | 0.429 µM | 0.144 µM | 0.343 µM | 0.205 µM | 0.444 µM | 0.146 µM | 0.345 µM | 0.238 µM | 0.746 µM | 0.185 µM | 0.38 µM | 0.161 µM | 0.305 µM | 0.178 µM | 0.405 µM |
| O=C(Nc1ccc(OS(=O)(=O)c2ccccc2)cc1)C12CC3CC(CC(C3)C1)C2 | > 100 µM | > 100 µM | 3.73 µM | > 100 µM | 1.87 µM | > 100 µM | 3.79 µM | > 100 µM | > 100 µM | > 100 µM | > 100 µM | > 100 µM | 8.27 µM | > 100 µM | 0.965 µM | > 100 µM | > 100 µM | > 100 µM | 6.47 µM | > 100 µM |
